From PubChem BioAssay (NCI)
Where “and” joins values, the source holds several entries; their conditions need not be identical. Equal entries are not always repeated.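 Where inhibition never reached the appropriate level, the endpoint shown equals the highest concentration tested. Otherwise, values were interpolated linearly from a five-concentration, 48-hour dose response in 96-well plates. GI50: concentration for 50% inhibition of growth. TGI: total growth inhibition.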

What was measured:
Test in all cases: NCI anticancer screen, dose series, 48 h
[1] = tested on: HCT-15 colon
[2] = tested on: HL-60(TB) leukemia
[3] = tested on: OVCAR-4 ovarian
[4] = tested on: OVCAR-5 ovarian
[5] = tested on: OVCAR-8 ovarian
[6] = tested on: SF-295 CNS
[7] = tested on: SK-MEL-5 melanoma
[8] = tested on: SNB-19 CNS
[9] = tested on: SW-620 colon
[10] = tested on: UACC-62 melanoma

| SMILES | GI50 [1] | TGI [1] [µM] | GI50 [2] | TGI [2] | GI50 [3] | TGI [3] [µM] | GI50 [4] | TGI [4] [µM] | GI50 [5] | TGI [5] [µM] | GI50 [6] | TGI [6] [µM] | GI50 [7] | TGI [7] | GI50 [8] | TGI [8] [µM] | GI50 [9] | TGI [9] [µM] | GI50 [10] [µM] | TGI [10] [µM] |
| --- | --- | --- | --- | --- | --- | --- | --- | --- | --- | --- | --- | --- | --- | --- | --- | --- | --- | --- | --- | --- |
| CC(C)[O-].CC(C)[O-].CN(CCN(C)Cc1cc(F)cc(F)c1[O-])Cc1cc(F)cc(F)c1[O-].[Ti+4] | 0.526 µM | 15.1 | 1.51 µM | > 40.8 µM | 0.717 µM | 7.18 | 1.51 µM | 8.78 | 1.09 µM | 6.55 | 0.71 µM | 3.76 | 0.467 µM | 1.67 µM | 0.909 µM | 8.15 | 0.828 µM | 3.3 | 1.26 | 3.09 |
| c1ccc(-c2nc(N3CCCNCC3)c3nc(-c4ccccc4)oc3n2)cc1 | 1.47 µM | 2.89 | 1.83 µM | 3.55 µM | 1.98 µM | 3.67 | 1.7 µM | 3.18 | 2.13 µM | 4.93 | 1.81 µM | 3.25 | 1.77 µM | 3.18 µM | 1.71 µM | 3.34 | 1.76 µM | 3.47 | 1.81 | 3.34 |
| O=C1c2ccccc2-c2c1c1c(NCCCO)nc3ccccc3c1n2Cc1ccccc1 | 37.5 µM | > 100 | 12 µM | 25.7 µM | 23 µM | 57 | 18 µM | 39.9 | 35 µM | > 100 | 22.3 µM | 45.3 | 31 µM | > 100 µM | 27.8 µM | 73.1 | 27.4 µM | > 100 | 18.7 | 36.5 |
| CC(C)Oc1ccc(C(=O)Cn2ccnc2)cc1-n1c(CN2CCN(C(=O)COc3ccc(Cl)cc3)CC2)nc2ccccc2c1=O | 12.3 µM | 32.6 | 2.3 µM | 27.7 µM | 3.6 µM | > 64.8 | 17.6 µM | 42.4 | 15.5 µM | 53.2 | 14.8 µM | 31.6 | 9.78 µM | 23.5 µM | 29.6 µM | > 100 | 13.4 µM | 50.9 | 12.8 | 28.9 |
| COc1cc(C2c3cc4c(cc3[C@@H](Nc3ccc5c(c3)OCCO5)C3COC(=O)[C@H]23)OCO4)cc(OC)c1O (stereo not given in full) | – | 7.23 | – | 0.241 µM | – | 29.3 | – | 16.6 | – | 25.6 | – | 4.25 | – | 1.75 µM | – | 66.6 | – | > 79.1 | – | 7.19 |
| CC(=O)n1c(=O)c2cc3c(=O)n(-c4cccc(C#N)c4)c(=O)c3cc2c1=O | – | > 100 | – | > 100 µM | – | > 100 | – | > 100 | – | > 100 | – | > 100 | – | > 100 µM | – | > 100 | – | > 100 | – | > 100 |
| Cc1ccc(-n2nc(C(C)(C)C)cc2NC(=O)NCc2cc(F)ccc2Oc2ccc3c(cnn3CCO)c2)cc1 | > 10 µM and 8.9 µM | > 100 | 1.41 µM and 2.09 µM | > 10 µM and 10.1 µM | > 10 µM and 4.1 µM | > 100 | > 10 µM and 1.89 µM | > 31.6 | > 10 µM and 8.96 µM | > 100 | > 10 µM and 10.2 µM | > 100 | 2.39 µM and 3.15 µM | > 10 µM and 13.2 µM | > 10 µM and 17.9 µM | > 100 | > 10 µM and 6.34 µM | > 100 | 0.667 | > 39.8 |
| O=C(Cl)C1=C(c2ccccc2)C1c1ccccc1 (stereo not given) | – | > 100 | – | > 100 µM | – | > 100 | – | > 100 | – | > 100 | – | > 100 | – | > 100 µM | – | > 100 | – | > 100 | – | > 100 |
| Cc1cccc(C)c1N1C(=O)C(=O)C(c2nc3ccccc3s2)C(=Nc2cccc3c(=O)[nH][nH]c(=O)c23)C1=O (stereo not given) | – | > 100 | – | > 100 µM | – | > 100 | – | > 100 | – | > 100 | – | > 100 | – | > 100 µM | – | > 100 | – | > 100 | – | > 100 |
